The text below walks through data of paper PMC5062114, “Dual-targeting anti-angiogenic cyclic peptides as potential drug leads for cancer therapy” (Scientific Reports, 2016).

Bridge positions count the residues as written; N and C are the ends. Square brackets hold non-standard residues; d marks the D form. Peptide text beside a SMILES is read from it.

Common to all, as to experiment: cells
One test deals with HUVEC. The settings on record: read-out: IC50 ± S.D.; 48 hours, HUVEC; cell proliferation inhibition, MTT, 48-h incubation, 1.5 × 10^3 cells/well, triplicate, mean ± SD. Here is the method: (§1) HUVECs (human umbilical vein endothelial cells) were cultured in EGM™-2 BulletKit™ supplemented with SingleQuots™ (supplements: growth factors, cytokines, antibiotics; Lonza) and 10% FBS (catalog no. FFBS-500; Scientifix). Both HT-29 and MCF-7 cells were cultured in 10% FBS/DMEM (Dulbecco’s Modified Eagle Medium) with 1% penicillin–streptomycin (5000 U/mL; Life Technologies), whereas PC3 cells (prostate cancer cells) were cultured in 10% FBS/RPMI (Roswell Park Memorial Institute) 1640 with 1% penicillin–streptomycin (5000 U/mL; Life Technologies). All cells were maintained at 37 °C in 5% CO2.
(§2) Cell cytotoxicity and proliferation assays were performed using similar methods to those described by Chan et al.[45]. All cells were maintained using the media conditions described above, and passages two to ten were used for all cell lines. For all cell lines, 5.0 × 10^3 cells/well (100 μL) and 1.5 × 10^3 cells/well (100 μL) were used for cell cytotoxicity and cell proliferation assays, respectively. All peptides (10 μL, at final concentrations ranging from 0.05–100 μM) and drugs, which included cilengitide, octreotide and sunitinib (at final concentrations ranging from 0.00001–100 μM), were used in both assays. Triton X-100 (0.1% (v/v); 10 μL) was used as a positive control. Cells were treated with fresh media the day after plating, before the addition of peptides, followed by a subsequent 2-h and 48-h incubation for cell cytotoxicity and cell proliferation, respectively. After different incubation periods, 3-(4, 5-dimethylthiazolyl-2)-2,5-diphenyltetrazolium bromide (MTT) (10 μL; 5 mg/mL in PBS) was added, and cells were incubated for a further 4 h. The supernatant was then removed and 100 μL DMSO added to solubilize formazan salts. Experiments were performed in triplicate. Cell numbers were recorded at 600 nm. All data represent average mean ± SD.

The next test deals with HT-29. Particulars: read-out: IC50 ± S.D.; 48 hours, HT-29; cell proliferation inhibition, MTT, 48-h incubation, 1.5 × 10^3 cells/well, triplicate, mean ± SD. As to the method:
as §1, §2

A further test relates to PC3. Particulars: read-out: IC50 ± S.D.; 48 hours, PC3; cell proliferation inhibition, MTT, 48-h incubation, 1.5 × 10^3 cells/well, triplicate, mean ± SD. As to the method:
as §1, §2

Another test deals with MCF-7. Particulars: read-out: IC50 ± S.D.; 48 hours, MCF-7; cell proliferation inhibition, MTT, 48-h incubation, 1.5 × 10^3 cells/well, triplicate, mean ± SD. Here is the method:
as §1, §2

`CC[C@H](C)[C@@H]1NC(=O)[C@@H]2CSSC[C@@H]3NC(=O)[C@H](Cc4ccccc4)NC(=O)[C@@H]4CCCN4C(=O)[C@H](CCC(N)=O)NC(=O)[C@H](CC(N)=O)NC(=O)[C@H](CC(C)C)NC(=O)[C@H](Cc4c[nH]cn4)NC(=O)[C@H](Cc4ccc(O)cc4)NC(=O)[C@@H]4CSSC[C@H](NC(=O)[C@H](CC(=O)O)NC(=O)[C@H](CO)NC(=O)[C@H](CC(=O)O)NC(=O)[C@H](CCCNC(=N)N)NC(=O)[C@H](CCCNC(=N)N)NC(=O)[C@H](CSSC[C@H](NC1=O)C(=O)N[C@@H](CCCNC(=N)N)C(=O)NCC(=O)N[C@@H](CC(N)=O)C(=O)NCC(=O)N[C@@H](Cc1ccc(O)cc1)C(=O)N4)NC(=O)[C@H](CCCCN)NC(=O)[C@H](CCCCN)NC(=O)[C@H](CC(C)C)NC(=O)[C@H]([C@@H](C)CC)NC(=O)[C@H](CCCCN)NC(=O)[C@@H]1CCCN1C3=O)C(=O)N1CCC[C@H]1C(=O)NCC(=O)N[C@@H](C)C(=O)N2` [MCo-PEDF] (cyclo(ACICRGNGYCYHLNQPFCPKILKKCRRDSDCPG); disulfide 2-18, 4-25, 10-31): the IC50 – broadly, the concentration at which inhibition is half-maximal – in the test with HUVEC was 50.16 ± 0.15 µM; in the test with HT-29, 35.22 ± 0.08 µM; in the test on PC3 it was 39.11 ± 0.07 µM; in the test with MCF-7 it was 53.44 ± 0.14 µM.

`CC[C@H](C)[C@@H]1NC(=O)[C@@H]2CSSC[C@@H]3NC(=O)[C@H](Cc4c[nH]c5ccccc45)NC(=O)[C@H]([C@@H](C)O)NC(=O)[C@H](CCCCN)NC(=O)[C@@H](Cc4c[nH]c5ccccc45)NC(=O)[C@H](Cc4ccccc4)NC(=O)[C@H](CCCNC(=N)N)NC(=O)[C@@H]4CSSC[C@H](NC(=O)[C@H](CC(=O)O)NC(=O)[C@H](CO)NC(=O)[C@H](CC(=O)O)NC(=O)[C@H](CCCNC(=N)N)NC(=O)[C@H](CCCNC(=N)N)NC(=O)[C@H](CSSC[C@H](NC1=O)C(=O)N[C@@H](CCCNC(=N)N)C(=O)NCC(=O)N[C@@H](CC(N)=O)C(=O)NCC(=O)N[C@@H](Cc1ccc(O)cc1)C(=O)N4)NC(=O)[C@H](CCCCN)NC(=O)[C@H](CCCCN)NC(=O)[C@H](CC(C)C)NC(=O)[C@H]([C@@H](C)CC)NC(=O)[C@H](CCCCN)NC(=O)[C@@H]1CCCN1C3=O)C(=O)N1CCC[C@H]1C(=O)NCC(=O)N[C@@H](C)C(=O)N2` [MCo-SST-02] (cyclo(ACICRGNGYCRF[dW]KTWCPKILKKCRRDSDCPG); disulfide 2-17, 4-24, 10-30): the IC50 with HUVEC is greater than 100 µM; with HT-29, 58.89 ± 0.09 µM; with PC3 it was 83.55 ± 0.2 µM; with MCF-7, 70.61 ± 0.11 µM.

As for `CC[C@H](C)[C@@H]1NC(=O)[C@@H]2CSSC[C@@H]3NC(=O)[C@H](C(C)C)NC(=O)CNC(=O)CNC(=O)[C@H](CC(=O)O)NC(=O)[C@H](CO)NC(=O)CNC(=O)[C@H](CO)NC(=O)CNC(=O)[C@@H]4CSSC[C@H](NC(=O)[C@H](CC(=O)O)NC(=O)[C@H](CO)NC(=O)[C@H](CC(=O)O)NC(=O)[C@H](CCCNC(=N)N)NC(=O)[C@H](CCCNC(=N)N)NC(=O)[C@H](CSSC[C@H](NC1=O)C(=O)N[C@@H](CCCNC(=N)N)C(=O)NCC(=O)N[C@@H](CC(N)=O)C(=O)NCC(=O)N[C@@H](Cc1ccc(O)cc1)C(=O)N4)NC(=O)[C@H](CCCNC(=N)N)NC(=O)[C@H](CCCNC(=N)N)NC(=O)[C@H](CCCNC(=N)N)NC(=O)[C@H](CCCCN)NC(=O)[C@H](CCCNC(=N)N)NC(=O)[C@H](CCCNC(=N)N)NC3=O)C(=O)N1CCC[C@H]1C(=O)NCC(=O)N[C@@H](C)C(=O)N2` [MCo-polyR-L1] (cyclo(ACICRGNGYCGSGSDGGVCRRKRRRCRRDSDCPG); disulfide 2-19, 4-26, 10-32), the IC50 in the test on HUVEC, with HT-29, with PC3 and in the test on MCF-7 was greater than 100 µM throughout.

As for `CC[C@H](C)[C@@H]1NC(=O)[C@@H]2CSSC[C@@H]3NC(=O)CNC(=O)[C@H](CCCNC(=N)N)NC(=O)[C@H](CCCNC(=N)N)NC(=O)[C@H](CCCNC(=N)N)NC(=O)[C@H](CCCCN)NC(=O)[C@H](CCCNC(=N)N)NC(=O)[C@H](CCCNC(=N)N)NC(=O)CNC(=O)[C@@H]4CSSC[C@H](NC(=O)[C@H](CC(=O)O)NC(=O)[C@H](CO)NC(=O)[C@H](CC(=O)O)NC(=O)[C@H](CCCNC(=N)N)NC(=O)[C@H](CCCNC(=N)N)NC(=O)[C@H](CSSC[C@H](NC1=O)C(=O)N[C@@H](CCCNC(=N)N)C(=O)NCC(=O)N[C@@H](CC(N)=O)C(=O)NCC(=O)N[C@@H](Cc1ccc(O)cc1)C(=O)N4)NC(=O)[C@H](CCCCN)NC(=O)[C@H](CCCCN)NC(=O)[C@H](CC(C)C)NC(=O)[C@H]([C@@H](C)CC)NC(=O)[C@H](CCCCN)NC(=O)[C@@H]1CCCN1C3=O)C(=O)N1CCC[C@H]1C(=O)NCC(=O)N[C@@H](C)C(=O)N2` [MCo-polyR-L6] (cyclo(ACICRGNGYCGRRKRRRGCPKILKKCRRDSDCPG); disulfide 2-19, 4-26, 10-32), the IC50 in the test with HUVEC is 34.95 ± 0.03 µM; in the test on HT-29, 52.89 ± 0.11 µM; with PC3 it was greater than 100 µM; with MCF-7 it was greater than 100 µM.

On to `CC[C@H](C)[C@@H]1NC(=O)[C@@H]2CSSC[C@@H]3NC(=O)[C@H](C(C)C)NC(=O)CNC(=O)CNC(=O)[C@H](CC(=O)O)NC(=O)[C@H](CO)NC(=O)CNC(=O)[C@H](CO)NC(=O)CNC(=O)[C@@H]4CSSC[C@H](NC(=O)[C@H](CC(=O)O)NC(=O)[C@H](CO)NC(=O)[C@H](CC(=O)O)NC(=O)[C@H](CCCNC(=N)N)NC(=O)[C@H](CCCNC(=N)N)NC(=O)[C@H](CSSC[C@H](NC1=O)C(=O)N[C@@H](CCCNC(=N)N)C(=O)N[C@@H](Cc1ccc(O)cc1)C(=O)N[C@H](Cc1c[nH]c5ccccc15)C(=O)N[C@@H](CCCCN)C(=O)N[C@@H](C(C)C)C(=O)N4)NC(=O)CNC(=O)[C@H](CCCNC(=N)N)NC(=O)[C@H](CCCNC(=N)N)NC(=O)[C@H](CCCNC(=N)N)NC(=O)[C@H](CCCCN)NC(=O)[C@H](CCCNC(=N)N)NC(=O)[C@H](CCCNC(=N)N)NC(=O)CNC3=O)C(=O)N1CCC[C@H]1C(=O)NCC(=O)N[C@@H](C)C(=O)N2` [MCoAA-01] (cyclo(ACICRY[dW]KVCGSGSDGGVCGRRKRRRGCRRDSDCPG); disulfide 2-19, 4-28, 10-34), for which the IC50 in the test on HUVEC is 10.83 ± 0.09 µM; in the test on HT-29, 40.12 ± 0.13 µM; in the test on PC3, greater than 100 µM; in the test on MCF-7, 45.01 ± 0.16 µM.

With `CC[C@H](C)[C@@H]1NC(=O)[C@@H]2CCCN2C(=O)[C@@H]2CCCN2C(=O)[C@H]([C@@H](C)CC)NC(=O)[C@H](CO)NC(=O)[C@H](CCCCN)NC(=O)[C@H]([C@@H](C)O)NC(=O)[C@@H]2CSSC[C@H](NC1=O)C(=O)N[C@@H](Cc1ccccc1)C(=O)N1CCC[C@H]1C(=O)N[C@@H](CC(=O)O)C(=O)NCC(=O)N[C@@H](CCCNC(=N)N)C(=O)N2` [SFTI-1, sunflower trypsin inhibitor-1, reference compound], the IC50 in the test on HUVEC, with HT-29, in the test with PC3 and with MCF-7 was greater than 100 µM in each case.

As to `CC[C@H](C)[C@@H]1NC(=O)[C@@H]2CCCN2C(=O)[C@@H]2CCCN2C(=O)[C@H]([C@@H](C)CC)NC(=O)[C@H](CO)NC(=O)[C@H](CCCCN)NC(=O)[C@H]([C@@H](C)O)NC(=O)[C@@H]2CSSC[C@H](NC1=O)C(=O)N[C@@H](Cc1ccc(O)cc1)C(=O)N[C@@H](Cc1c[nH]cn1)C(=O)N[C@@H](CC(C)C)C(=O)N[C@@H](CC(N)=O)C(=O)N[C@@H](CCC(N)=O)C(=O)N1CCC[C@H]1C(=O)N[C@@H](Cc1ccccc1)C(=O)N2` [SFTI-PEDF] (cyclo(CTKSIPPICYHLNQPF); disulfide 1-9), the IC50 with HUVEC is 27.89 ± 0.11 µM; in the test with HT-29 it was greater than 100 µM; in the test on PC3 it was greater than 100 µM; in the test with MCF-7, greater than 100 µM.

As for `CC[C@H](C)[C@@H]1NC(=O)[C@@H]2CCCN2C(=O)[C@@H]2CCCN2C(=O)[C@H]([C@@H](C)CC)NC(=O)[C@H](CO)NC(=O)[C@H](CCCCN)NC(=O)[C@H]([C@@H](C)O)NC(=O)[C@@H]2CSSC[C@H](NC1=O)C(=O)N[C@@H](Cc1ccc(O)cc1)C(=O)N[C@H](Cc1c[nH]c3ccccc13)C(=O)N[C@@H](CCCCN)C(=O)N[C@@H](C(C)C)C(=O)N2` [SFTI-SST-01] (cyclo(CTKSIPPICY[dW]KV); disulfide 1-9), the IC50 with HUVEC is 18.32 ± 0.05 µM; in the test on HT-29, 45.38 ± 0.03 µM; in the test with PC3, greater than 100 µM; in the test with MCF-7, 46.07 ± 0.05 µM.
